In ChEMBL document CHEMBL3352713, “A new class of salicylic acid derivatives for inhibiting YopH of Yersinia pestis” (Bioorg Med Chem, 2014):

Columns and labels:
[1] = Inhibition of Yersinia pestis YopH using […] as substrate by spectrophotometry
[2] = Selectivity for Yersinia pestis YopH over Cdc25A (unknown origin) at 5 nM
[3] = Selectivity for Yersinia pestis YopH over TCPTP (unknown origin) at 5 nM
[4] = Selectivity for Yersinia pestis YopH over HePTP (unknown origin) at 5 nM
[5] = Selectivity for Yersinia pestis YopH over PTP1B (unknown origin) at 5 nM
[6] = Selectivity for Yersinia pestis YopH over VHR (unknown origin) at 5 nM
[7] = Selectivity for Yersinia pestis YopH over CD45 (unknown origin) at 5 nM

O=C(CCCCNC(=O)c1cc(-c2ccc(O)c(C(=O)O)c2)on1)Nc1nc(-c2ccccc2)cs1
IC50 [1]: 23 µM

O=C(CCCCNC(=O)c1cc(-c2ccc(O)c(C(=O)O)c2)cs1)Nc1nc(-c2ccccc2)cs1
IC50 [1]: 44.2 µM

O=C(CCCCNC(=O)c1ccc(-c2ccc(O)c(C(=O)O)c2)s1)Nc1nc2ccccc2s1
IC50 [1]: > 20 µM

O=C(CCNC(=O)c1ccc(-c2ccc(O)c(C(=O)O)c2)s1)Nc1nc(-c2ccccc2)cs1
IC50 [1]: > 50 µM

O=C(CCCCNC(=O)c1ccc(-c2ccc(O)c(C(=O)O)c2)s1)NCc1ccccc1
IC50 [1]: > 200 µM

O=C(CCCCNC(=O)c1ccc(-c2ccc(O)c(C(=O)O)c2)s1)Nc1ccc(N2CCOCC2)cc1
IC50 [1]: > 200 µM

O=C(CCCCNC(=O)c1cc(-c2ccc(O)c(C(=O)O)c2)cs1)Nc1nc2ccccc2s1
IC50 [1]: 39.5 µM

O=C(O)C1=CC(=C(c2ccc(O)c(C(=O)O)c2)c2ccc(O)c(C(=O)O)c2)C=CC1=O [AURINTRICARBOXYLIC ACID]
Ki [1]: 0.005 µM | Selectivity ratio [2]: 6 | Selectivity ratio [3]: 6 | Selectivity ratio [4]: 6 | Selectivity ratio [5]: 6 | Selectivity ratio [6]: 6 | Selectivity ratio [7]: 6

O=C(CCCCNC(=O)c1ccc(-c2ccc(O)c(C(=O)O)c2)s1)Nc1nc(-c2ccccc2)cs1
IC50 [1]: 11.1 µM

O=C(CCCCNC(=O)c1cc(-c2ccc(O)c(C(=O)O)c2)on1)Nc1ccc(N2CCOCC2)cc1
IC50 [1]: 63 µM
